Key:
Format in all cases: cell-based
[1] = test system: HCC827-YVMA cells (human ERBB2 exon20 insertion mutant A775_G776ins YVMA); assay: Cell growth inhibition (CellTiter-Glo), HCC827-YVMA; details: 72 h, HCC827-YVMA cells, 3 days, CellTiter-Glo, read-out: Cell growth inhibition, GI50 (nM) HCC827-YVMA
Method in brief: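 Growth in RPMI with 10% FBS was measured by CellTiter-Glo luminescence after 3 days at 37 °C with test compounds across a concentration range. The single-clone HCC827 lines carry a lentiviral YVMA (ERBB2) or ASV (EGFR) exon 20 insertion, with endogenous EGFR removed via sgRNA/Cas9.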

[2] = test system: HCC827 cells; assay: Cell growth inhibition (CellTiter-Glo), HCC827; details: Homo sapiens, 72 h, 3 days
Procedure: 2. Cell Growth Inhibition for HCC827, HCC827-SVD, HCC827-ASV, HCC827-YVMA, and A431.
HCC827(ATCC), HCC827-SVD, HCC827-ASV, and HCC827-YVMA cells were seeded in 96-well plates at 5000 cells/well in 90 μL of RPMI growth medium containing 10% FBS and 1% Penicillin Streptomycin. A431 (ATCC) cells were seeded in 96-well plates at 5000 cells/well in 90 μL of DMEM growth medium containing 10% FBS and 1% Penicillin Streptomycin. Cells were incubated at 37° C. overnight and then administered with 10 μL 10× test compounds prepared in the growth medium at various concentrations. After administration of the compounds, cells were incubated at 37° C. for 3 days. Before the CellTiter-Glo assay, the plates were equilibrated at room temperature for approximately 30 minutes. 100 ul of CellTiter-Glo reagent (Promega) was added to each well. The plates were then incubated at room temperature for 10 minutes and luminescence was recorded by the EnSight® multimode plate reader (PerkinElmer). Table 7 listed selected compounds in cellular growth assay.

[3] = test system: HCC827-SVD cells (human EGFR exon 20 insertion mutant D770_N771insSVD); assay: Cell growth inhibition (CellTiter-Glo), HCC827-SVD; details: 72 h, 3 days
Method in brief: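 Growth read by CellTiter-Glo luminescence after 3-day compound exposure at 37 °C. Engineered clonal HCC827 line (native EGFR deleted by CRISPR, mutant EGFR re-expressed) plated at 5000 cells/well in 10% FBS RPMI the night before dosing.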

| GI50 [1] [nM] | GI50 [2] [nM] | GI50 [3] [nM] | Structure (SMILES) |
| --- | --- | --- | --- |
| 50 to 200 | 50 to 200 | 50 to 200 | C=CC(=O)N1CCC(c2c[nH]c3ncnc(Nc4ccc(OCc5nccn5C)c(Cl)c4)c23)CC1 [Compound 94, 1-(4-(4-((3-chloro-4-((1-methyl-1H-imidazol-2-yl)methoxy)phenyl)amino)-7H-pyrrolo[2,3-d]pyrimidin-5-yl)piperidin-1-yl)prop-2-en-1-one] |
| < 50 | < 50 | < 50 | C=CC(=O)N1CCC(c2c[nH]c3ncnc(Nc4ccc(OCc5ncco5)c(Cl)c4)c23)CC1 [Compound 95, 1-(4-(4-((3-chloro-4-(oxazol-2-ylmethoxy)phenyl)amino)-7H-pyrrolo[2,3-d]pyrimidin-5-yl)piperidin-1-yl)prop-2-en-1-one] |
| < 50 | < 50 | < 50 | C=CC(=O)N1CCC(c2c[nH]c3ncnc(Nc4ccc(OCc5cccc(C)n5)c(Cl)c4)c23)CC1 [Compound 98, 1-(4-(4-((3-chloro-4-((6-methylpyridin-2-yl)methoxy)phenyl)amino)-7H-pyrrolo[2,3-d]pyrimidin-5-yl)piperidin-1-yl)prop-2-en-1-one] |
| < 50 | 50 to 200 | 50 to 200 | C=CC(=O)N1CCC(c2c[nH]c3ncnc(Nc4ccc(OCc5ccc(OC)cn5)c(Cl)c4)c23)CC1 [Compound 99, 1-(4-(4-((3-chloro-4-((5-methoxypyridin-2-yl)methoxy)phenyl)amino)-7H-pyrrolo[2,3-d]pyrimidin-5-yl)piperidin-1-yl)prop-2-en-1-one] |
| < 50 | < 50 | < 50 | C=CC(=O)N1CCC(c2c[nH]c3ncnc(Nc4ccc(OCc5cc(C#N)ccn5)c(Cl)c4)c23)CC1 [Compound 100, 2-((4-((5-(1-acryloylpiperidin-4-yl)-7H-pyrrolo[2,3-d]pyrimidin-4-yl)amino)-2-chlorophenoxy)methyl)isonicotinonitrile] |
| 50 to 200 | 50 to 200 | 50 to 200 | C=CC(=O)N1CCC(c2c[nH]c3ncnc(Nc4ccc(OCc5ccc(C#N)cn5)c(Cl)c4)c23)CC1 [Compound 101, 6-((4-((5-(1-acryloylpiperidin-4-yl)-7H-pyrrolo[2,3-d]pyrimidin-4-yl)amino)-2-chlorophenoxy)methyl)nicotinonitrile] |
| < 50 | 50 to 200 | 50 to 200 | C=CC(=O)N1CCC(c2c[nH]c3ncnc(Nc4ccc(OCc5cn6ccccc6n5)c(Cl)c4)c23)CC1 [Compound 102, 1-(4-(4-((3-chloro-4-(imidazo[1,2-a]pyridin-2-ylmethoxy)phenyl)amino)-7H-pyrrolo[2,3-d]pyrimidin-5-yl)piperidin-1-yl)prop-2-en-1-one] |
| > 1000 | 200 to 1000 | > 1000 | C=CC(=O)N1CCC(c2c[nH]c3ncnc(Nc4ccc(OCc5cnn(C(C)C)c5)c(Cl)c4)c23)CC1 [Compound 108, 1-(4-(4-((3-chloro-4-((1-isopropyl-1H-pyrazol-4-yl)methoxy)phenyl)amino)-7H-pyrrolo[2,3-d]pyrimidin-5-yl)piperidin-1-yl)prop-2-en-1-one] |
| 50 to 200 | 50 to 200 | 200 to 1000 | C=CC(=O)N1CCC(c2c[nH]c3ncnc(Nc4ccc(OCc5ccc(C(F)(F)F)cn5)c(Cl)c4)c23)CC1 [Compound 112, 1-(4-(4-((3-chloro-4-((5-(trifluoromethyl)pyridin-2-yl)methoxy)phenyl)amino)-7H-pyrrolo[2,3-d]pyrimidin-5-yl)piperidin-1-yl)prop-2-en-1-one] |
| < 50 | < 50 | < 50 | C=CC(=O)N1CCC(c2c[nH]c3ncnc(Nc4ccc(OCc5ccncn5)c(Cl)c4)c23)CC1 [Compound 114, 1-(4-(4-((3-chloro-4-(pyrimidin-4-ylmethoxy)phenyl)amino)-7H-pyrrolo[2,3-d]pyrimidin-5-yl)piperidin-1-yl)prop-2-en-1-one] |

More lines, now with the values behind:

| Structure (SMILES) | GI50 [1] [nM] | GI50 [2] [nM] | GI50 [3] [nM] |
| --- | --- | --- | --- |
| C=CC(=O)N1CCC(c2c[nH]c3ncnc(Nc4ccc(OC5CCCN(S(=O)(=O)c6ccccc6)C5)cc4F)c23)CC1 (stereo in doubt) [Compound 124, (S)-1-(4-(4-((2-fluoro-4-((1-(phenylsulfonyl)piperidin-3-yl)oxy)phenyl)amino)-7H-pyrrolo[2,3-d]pyrimidin-5-yl)piperidin-1-yl)prop-2-en-1-one] | 50 to 200 | 200 to 1000 | 200 to 1000 |
| C=CC(=O)N1CCC(c2c[nH]c3ncnc(Nc4ccc(OCc5ccnc(-n6ccc(OC)n6)c5)cc4F)c23)CC1 [Compound 92, 1-(4-(4-((2-fluoro-4-((2-(3-methoxy-1H-pyrazol-1-yl)pyridin-4-yl)methoxy)phenyl)amino)-7H-pyrrolo[2,3-d]pyrimidin-5-yl)piperidin-1-yl)prop-2-en-1-one] | 50 to 200 | 50 to 200 | 50 to 200 |
| C=CC(=O)N1CCC(c2c[nH]c3ncnc(Nc4ccc(OCc5ccnc(Nc6ccccn6)c5)cc4F)c23)CC1 [Compound 93, 1-(4-(4-((2-fluoro-4-((2-(pyridin-2-ylamino)pyridin-4-yl)methoxy)phenyl)amino)-7H-pyrrolo[2,3-d]pyrimidin-5-yl)piperidin-1-yl)prop-2-en-1-one] | 50 to 200 | 50 to 200 | 50 to 200 |
| C=CC(=O)N1CCC(c2c[nH]c3ncnc(Nc4ccc(OCc5ccc(-c6ccccc6)nc5)cc4F)c23)CC1 [Compound 96, 1-(4-(4-((2-fluoro-4-((6-phenylpyridin-3-yl)methoxy)phenyl)amino)-7H-pyrrolo[2,3-d]pyrimidin-5-yl)piperidin-1-yl)prop-2-en-1-one] | 200 to 1000 | 200 to 1000 | > 1000 |
| C=CC(=O)N1CCC(c2c[nH]c3ncnc(Nc4ccc(OCc5ccnc(-c6ccccc6)c5)cc4F)c23)CC1 [Compound 97, 1-(4-(4-((2-fluoro-4-((2-phenylpyridin-4-yl)methoxy)phenyl)amino)-7H-pyrrolo[2,3-d]pyrimidin-5-yl)piperidin-1-yl)prop-2-en-1-one] | 200 to 1000 | 200 to 1000 | 200 to 1000 |
| C=CC(=O)N1CCC(c2c[nH]c3ncnc(Nc4ccc(OCc5nc(C(F)(F)F)cs5)c(Cl)c4)c23)CC1 [Compound 103, 1-(4-(4-((3-chloro-4-((4-(trifluoromethyl)thiazol-2-yl)methoxy)phenyl)amino)-7H-pyrrolo[2,3-d]pyrimidin-5-yl)piperidin-1-yl)prop-2-en-1-one] | 50 to 200 | 50 to 200 | 50 to 200 |
| C=CC(=O)N1CCC(c2c[nH]c3ncnc(Nc4ccc(Oc5ccnc(Nc6ccccc6)c5)cc4F)c23)CC1 [Compound 104, 1-(4-(4-((2-fluoro-4-((2-(phenylamino)pyridin-4-yl)oxy)phenyl)amino)-7H-pyrrolo[2,3-d]pyrimidin-5-yl)piperidin-1-yl)prop-2-en-1-one] | < 50 | 200 to 1000 | 50 to 200 |
| C=CC(=O)N1CCC(c2c[nH]c3ncnc(Nc4ccc(OCc5ccccn5)cc4F)c23)CC1 [Compound 105, 1-(4-(4-((2-fluoro-4-(pyridin-2-ylmethoxy)phenyl)amino)-7H-pyrrolo[2,3-d]pyrimidin-5-yl)piperidin-1-yl)prop-2-en-1-one] | < 50 | < 50 | < 50 |
| C=CC(=O)N1CCC(c2c[nH]c3ncnc(Nc4ccc(OCc5ccccn5)c(Cl)c4F)c23)CC1 [Compound 106, 1-[4-[4-[3-chloro-2-fluoro-4-(2-pyridylmethoxy)anilino]-7H-pyrrolo[2,3-d]pyrimidin-5-yl]-1-piperidyl]prop-2-en-1-one] | < 50 | < 50 | < 50 |
| C=CC(=O)N1CCC(c2c[nH]c3ncnc(Nc4ccc(Oc5ccnc(N6CC(C(F)(F)F)C6)c5)cc4F)c23)CC1 [Compound 107, 1-(4-(4-((2-fluoro-4-((2-(3-(trifluoromethyl)azetidin-1-yl)pyridin-4-yl)oxy)phenyl)amino)-7H-pyrrolo[2,3-d]pyrimidin-5-yl)piperidin-1-yl)prop-2-en-1-one] | 50 to 200 | > 1000 | 200 to 1000 |
| C=CC(=O)N1CCC(c2c[nH]c3ncnc(Nc4ccc(Oc5ccnc(NC6CCC6)c5)cc4F)c23)CC1 [Compound 109, 1-[4-[4-[4-[[2-(cycloButylamino)-4-pyridyl]oxy]-2-fluoro-anilino]-7H-pyrrolo[2,3-d]pyrimidin-5-yl]-1-piperidyl]prop-2-en-1-one] | < 50 | < 50 | 50 to 200 |
| C=CC(=O)N1CCC(c2n[nH]c3ncnc(Nc4ccc(Oc5ccnc(NC(=O)c6cnn(C)c6)c5)cc4F)c23)CC1 [Compound 196, N-(4-(4-((3-(1-acryloylpiperidin-4-yl)-1H-pyrazolo[3,4-d]pyrimidin-4-yl)amino)-3-fluorophenoxy)pyridin-2-yl)-1-methyl-1H-pyrazole-4-carboxamide] | 200 to 1000 |  | 200 to 1000 |

Source: patent US20240059698A1 (Accutar Biotechnology Inc., priority 2022, published 2024)
